Patent US10806794B2, “Protease inhibitors having enhanced features” (priority 2008, dated 2020)
Like-named read-outs stand apart in the source and are kept apart here.

Legend:
PBMCs [1] = experiment: PBMC macromolecule synthesis (tritiated precursor incorporation); format: cell-based, human; conditions: for Thymidine Incorporation (PBMC) TC50: DNA synthesis; for Uridine Incorporation (PBMC) TC50: RNA synthesis; for Leucine Incorporation (PBMC) TC50: protein synthesis
Description: Cellular macromolecule synthesis was evaluated using tritiated precursor incorporation assays. PBMCs (5×10^4 cells/well) were cultured in the presence or absence of test compound for 7 days at 37 C, 5% CO2 in a 96-well microtiter plate. On day 6 of the incubation, 1 uCi of [methyl-3H]-thymidine for DNA synthesis, [5-3H]-uridine for RNA synthesis, or [3,4,5-3H]-leucine for protein synthesis was added to compound-treated cells, and the plate was further incubated for 16 hours. The cells were transferred to a glass fiber filtermat using an Inotech cell harvester. The filtermats were washed with distilled water then sealed in a bag with scintillation fluid. Incorporated radioactivity was measured using a Wallac scintillation counter.

CYP3A4 = CYP3A4 (Homo sapiens (Human), UniProt P08684); experiment: CYP450 inhibition in human liver microsomes: CYP3A4;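 note: incubation at 37 °C started by adding 1 mM NADPH, with formation of the probe metabolite measured via LC-MS/MS or fluorescent detection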
Sequence of CYP3A4 (P08684 whole entry): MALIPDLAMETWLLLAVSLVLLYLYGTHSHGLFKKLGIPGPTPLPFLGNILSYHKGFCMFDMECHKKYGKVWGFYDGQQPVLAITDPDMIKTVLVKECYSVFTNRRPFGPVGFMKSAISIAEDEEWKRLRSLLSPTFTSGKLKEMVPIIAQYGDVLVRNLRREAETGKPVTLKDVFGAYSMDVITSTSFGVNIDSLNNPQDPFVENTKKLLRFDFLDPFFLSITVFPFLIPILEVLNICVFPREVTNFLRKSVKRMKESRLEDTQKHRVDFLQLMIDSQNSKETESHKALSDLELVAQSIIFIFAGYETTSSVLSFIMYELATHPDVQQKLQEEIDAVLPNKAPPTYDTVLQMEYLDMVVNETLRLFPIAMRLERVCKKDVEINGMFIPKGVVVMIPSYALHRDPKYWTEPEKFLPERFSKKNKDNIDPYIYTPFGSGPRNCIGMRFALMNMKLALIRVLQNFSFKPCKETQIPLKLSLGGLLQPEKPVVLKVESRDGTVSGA

in vitro = in vitro ADME; conditions: dog, microsomes
Excerpt: Metabolic stability of test compounds was studied in dog liver microsomes.

human monocytes = experiment: Toxicity in human monocytes in the absence of viral infection
Description: Fresh human monocytes were infected with the BaL strain of HIV-1 in the presence of test compounds. After seven days in culture, HIV-1 replication was evaluated by measurement of HIV-1 viral capsid protein (p24) in the tissue culture supernatant (Table 7). […] A TI was calculated as described above using TC50 values derived from cell toxicity data in response to test compounds in the absence of viral infection.

HIV-1Ba-L = experiment: Anti-HIV-1 activity in monocyte-derived dendritic cells (reverse transcriptase activity); format: cell-based; conditions: dendritic cells
Description: Freshly separated human PBMCs from a single donor were suspended in DPBS at 4×10^6 cells/mL and incubated in a 75 cm^2 cell culture flask for 90 minutes at 37° C., 5% CO2. Non-adherent cells were removed by washing with DPBS. Differentiation to dendritic cells was induced by 7 day incubation in RPMI 1640 medium supplemented with 10% fetal bovine serum, 2 mmol/L L-glutamine, 25 mM HEPES, 100 Units/mL penicllin, 10 μg/mL streptomycin, 50 ng/mL recombinant human granulocyte-macrophage-colony stimulating factor (GM-CSF), and 50 ng/mL recombinant human Interleukin (IL)-4 at 37° C., 5% CO2. The cells were further incubated for two days in the same cytokine cocktail supplemented with 10 ng/mL lipopolysaccharide (LPS). The monocyte-derived dendritic cells were then suspended at 10×10^6 cells/mL in complete medium (RPMI 1640 medium supplemented with 10% fetal bovine serum, 2 mmol/L L-glutamine, 25 mM HEPES, 100 Units/mL penicllin, 10 μg/mL streptomycin) and infected for 2 h at 37 C, 5% CO2 with HIV-1Ba-L at MOI=50-150 TCID50. […] Compound diluted in complete medium was added to cells. After seven days in culture, HIV-1 replication was quantified by measuring HIV-1 reverse transcriptase activity in cell-free supernatants using a standard radioactive tritiated thymidine triphosphate (TTP) polymerization incorporation assay. For each reaction, 1 μL of TTP (1 Ci/mL) was combined with 4 μL of dH2O, 2.5 μL of poly rA and oligo dT (0.5 mg/mL and 1.7 Units/mL, respectively), and 2.5 μL reaction buffer (125 μL 1 mol/L EGTA, 125 μL dH2O, 125 μL 20% Triton X-100, 50 μL 1 mol/L Tris, pH 7.4, 50 μL 1 mol/L DTT, 40 μL 1 mol/L MgCl2), then 10 μL of the resulting mixture was combined with 15 µL of virus-containing supernatant in a round-bottom microtiter plate and the plate incubated at 37° C. in a humidified incubator for 90 minutes. Following incubation, 10 μL of the reaction volume was spotted onto a DEAD filter mat, then washed 5×5 min with 5% sodium phosphate buffer, 2×1 minute in distilled water, 2×1 minute in 70% ethanol, then air dried. The filter mat was incubated with Opti-Fluor O scintillation fluid, and radioactivity quantified using a Wallac 1450 Microbeta Trilux liquid scintillation counter.

mouse plasma proteins = experiment: Plasma protein binding by equilibrium dialysis, mouse plasma; format: in vitro ADME; conditions: fraction unbound
Description: (§1) In assays to estimate binding of test compounds to plasma proteins, test compound solutions (5 μM) are prepared in buffer and species-specific plasma (final DMSO concentration 0.5%). The plasma-containing solution is added to one side of the membrane of an equilibrium dialysis system, and the plasma-free is added to the other side. Dialysis was allowed to reach equilibrium by incubation for two hours at 37° C. The concentration of compound on both sides of the membrane was measured using LC-MS/MS.

monkey plasma proteins = experiment: Plasma protein binding by equilibrium dialysis, monkey plasma; format: in vitro ADME; conditions: fraction unbound
Description: as §1

rat plasma proteins = experiment: Plasma protein binding by equilibrium dialysis, rat plasma; format: in vitro ADME; conditions: fraction unbound
Description: as §1

Caco-2 cells = experiment: Bi-directional permeability in Caco-2 monolayers
Description: Absorption properties of various compounds were measured using bi-directional permeability assays in Caco-2 cells. […] The efflux ratio is calculated as the ratio of the Papp(B→A)/Papp(A→B).

[2] = test system: monocyte-derived dendritic cells; experiment: Cytotoxicity in monocyte-derived dendritic cells (XTT); format: cell-based, human
Excerpt: Cell viability is directly proportional to the amount of reduced XTT product formed.

PBMCs [3] = experiment: Toxicity in PBMCs cultured without virus (XTT); conditions: seven days, absence of virus, XTT
Description: Fresh human peripheral blood mononuclear cells (PBMCs) obtained from a commercial source were purified following centrifugation using a Ficoll-Hypaque density gradient. Viable cells were induced to proliferate in the presence of PHA-P and recombinant human IL-2 for 72 hours. […] Cell supernatant containing HIV-1 viral was incubated for 90 minutes at 37° C. with a reaction mixture containing EGTA, Triton X-100, Tris (pH 7.4), DTT, MgCl2, poly rA, oligo dT, and tritiated thymidine triphosphate (TTP). Incorporation of TTP into DNA was monitored by spotting the reaction mixture onto a DEAE filter mat, followed by washes with 5% phosphate buffer, distilled water, and 70% ethanol, and subsequent drying of the mat. […] TI was calculated as TC50/EC50.

[4] = first determination, read-out: EC50 First
[5] = mean of three, read-out: Mean EC50
[6] = second determination, read-out: EC50 Second
[7] = third determination, read-out: EC50 Third
[8] = read-out: CYP3A4 IC50 Midazolam, probe substrate midazolam
[9] = read-out: CYP3A4 IC50 Testosterone, probe substrate testosterone
[10] = monocyte/macrophages, absence of viral infection
[11] = Caco-2 monolayers, apical to basolateral

| Structure (SMILES) | Thymidine Incorporation (PBMC) TC50 (PBMCs [1]) [nM] | Uridine Incorporation (PBMC) TC50 (PBMCs [1]) [nM] | Leucine Incorporation (PBMC) TC50 (PBMCs [1]) [nM] | EC50 (HIV-1Ba-L; [4]) [nM] | EC50 (HIV-1Ba-L; [5]) [nM] | EC50 (HIV-1Ba-L; [6]) [nM] | EC50 (HIV-1Ba-L; [7]) [nM] | Efflux ratio (B→A/A→B) (Caco-2 cells; Caco-2 monolayers) | TC50 [2] [nM] | IC50 (CYP3A4; [8]) [nM] | IC50 (CYP3A4; [9]) [nM] | TC50 (human monocytes; [10]) [nM] | A→B, ×10^−6 (Caco-2 cells; [11]) [cm/s] | other results |
| --- | --- | --- | --- | --- | --- | --- | --- | --- | --- | --- | --- | --- | --- | --- |
| COCCOCCOCCOC(=O)NC(C(=O)NC(Cc1ccccc1)C(O)CN(Cc1ccc(-c2ccccn2)cc1)NC(=O)C(NC(=O)OC)C(C)(C)C)C(C)(C)C (stereo not drawn) [mono-mPEG3-Atazanavir, {1-[N′-[2-Hydroxy-3-(2-{2-[2-(2-methoxy-ethoxy)-ethoxy]-ethoxycarbonylamino}-3,3-dimethyl-butyrylamino)-4-phenyl-butyl]-N′-(4-pyridin-2-yl-benzyl)-hydrazinocarbonyl]-2,2-dimethyl-propyl}-carbamic Acid Methyl Ester] | 36600 | 27700 | 82000 |  |  |  |  |  |  |  |  |  |  | IC50 (CYP3A4; CYP3A4 IC50 Midazolam, probe substrate midazolam): 2850 nM; IC50 (CYP3A4; CYP3A4 IC50 Testosterone, probe substrate testosterone): 12800 nM; half-life (in vitro): 7.42 min; microsomal CLint (in vitro): 187 µL/min/mg |
| COCCOCCOCCOCCOCCOC(=O)NC(C(=O)NC(Cc1ccccc1)C(O)CN(Cc1ccc(-c2ccccn2)cc1)NC(=O)C(NC(=O)OC)C(C)(C)C)C(C)(C)C (stereo not drawn) [mono-mPEG5-Atazanavir] |  |  |  | 0.15 | 1.24 | 3.42 | 0.14 | 88 | >1000 | 9350 | > 25000 |  |  | TC50 (human monocytes): 120800 nM; Mouse Plasma Protein Binding Fu ± SD (mouse plasma proteins): 0.217 ± 0.0103; Monkey Plasma Protein Binding Fu ± SD (monkey plasma proteins): 0.383 ± 0.359; Rat Plasma Protein Binding Fu ± SD (rat plasma proteins): 0.307 ± 0.0493; A→B, ×10^−6 (Caco-2 cells; human, Caco-2): 0.12 cm/s; Clint (in vitro): 93.0 μL/min/mg protein; t1/2 (in vitro): 14.9 min |
| COCCOCCOCCOCCOCCOCCOCCNc1ccc(S(=O)(=O)N(CC(C)C)CC(O)[C@H](Cc2ccccc2)NC(=O)O[C@H]2CO[C@H]3OCC[C@H]32)cc1 (stereo partly drawn) [mPEG7-N-Darunavir] |  |  |  | 70 | 63.3 | 40 | 80 |  | >200000 | 5400 | 12900 | >200000 | 0.32 | PBMC TC50 ± SD (PBMCs [3]): >200000 nM |
| COCCOCCOCCOCCOCCNc1ccc(S(=O)(=O)N(CC(C)C)CC(O)[C@H](Cc2ccccc2)NC(=O)O[C@H]2CO[C@H]3OCC[C@H]32)cc1 (stereo partly drawn) [mPEG5-N-Darunavir] | 41300 | 73200 | 98500 | 8 | 16.7 | 2 | 40 | 21 | >200000 | 2700 | 4000 | >200000 | 1.07 |  |
